Literature values in PMC11040670, “Mechanistic and Kinetic Insights into Cellular Uptake of Biomimetic Dinitrosyl Iron Complexes and Intracellular Delivery of NO for Activation of Cytoprotective HO-1” (JACS Au, 2024).

Assays:
[1] = parameters: method as in doi:10.1021/j100627a005; settings: cited from earlier work
Prx 1 = system: Prx 1; parameters: method as in earlier work; settings: generated [(NO)2Fe(SGS)(SCys-Prx1)]n–, phosphate buffer (pH 7.4), normoxia; ref SI 4; cited from earlier work

O=C(O)CCS [HSCH2CH2COOH]
pKa for the carboxylic acid group [1]: 4.3

[(NO)2Fe(SGS)2]n– and [(NO)2Fe(-SGS)2Fe(NO)2]m– [DNDGIC]
k, second-order rate constant (Prx 1): 7.0 ± 0.4 M⁻¹ s⁻¹
